Literature values in patent US20040202732A1, “Composition to promote weight loss” (priority 2003, published 2004).

Legend:
[1] = system: TNF-alpha
[2] = system: prostaglandin E2 production
[3] = caffeine administration alone
[4] = mice fed CLA supplemented diets for 28 days
[5] = 12 weeks, 3.4-g and higher CLA groups, sixty overweight or obese subjects
[6] = three daily doses for 2 weeks, exercise 90 minutes three times weekly
[7] = system: IL-1
[8] = 12 weeks, fifty-three healthy men and women
[9] = 4-week treatment

**Q.** With `O=C(O[C@@H]1Cc2c(O)cc(O)cc2O[C@@H]1c1cc(O)c(O)c(O)c1)c1cc(O)c(O)c(O)c1` [EGCG, epigallocatechin galate] as the compound, how does the “inhibition of TNF-alpha” value [1] read?
**A.** can inhibit

**Q.** And the “inhibition of prostaglandin E2 production” value [2]?
**A.** can inhibit

**Q.** For `Cn1c(=O)c2c(ncn2C)n(C)c1=O` [caffeine], which “increased resting energy expenditure and fat oxidation” value [3] is on record?
**A.** did not occur

**Q.** Which results are given for Conjugated Linoleic Acid [CLA]?
**A.** body mass [4]: maintained body mass; increase of body protein [4]: up to 13%; reduction of body fat [4]: up to 60%; body fat mass (BFM) [5]: significant reduction; body weight loss [6]: no effects; body fat ([6]; versus placebo): significantly reduced; inhibition of IL-1 [7]: can inhibit; decrease of proportion of body fat [8]: 3.8%; inhibition of prostaglandin E2 production [2]: can inhibit; reduction from waistlines ([9]; average): an average of one-inch reduction; sagittal abdominal diameter (SAD) ([9]; twenty-five men with significant abdominal fat): significant reduction
